In patent US4962024A, “Signal enhancement in assay for an enzyme” (priority 1988, dated 1990):
Structures can show the parent of a compound that is named as a salt. Where two headings read alike, the source gives them in different places.

Biological target: acetyl cholinesterase (AChE) (Homo sapiens, UniProt P22303)
Test: Inhibition constants: inhibition of acetyl cholinesterase (AChE), acetyl thiocholine and Ellman's reagent
Assay type: biochemical
Protocol: Inhibition constants were measured in 50 mM Tris pH=8.0. Enzyme and inhibitor were incubated at ambient temperature for 20 minutes. Substrate for the enzyme was then added and the rate of hydrolysis was followed spectrophotometrically. The substrate for PLE and RLE was o-nitrophenylbutyrate and for AChE was acetyl thiocholine and Ellman's reagent.

Sequence of acetyl cholinesterase (AChE) (P22303 32-614): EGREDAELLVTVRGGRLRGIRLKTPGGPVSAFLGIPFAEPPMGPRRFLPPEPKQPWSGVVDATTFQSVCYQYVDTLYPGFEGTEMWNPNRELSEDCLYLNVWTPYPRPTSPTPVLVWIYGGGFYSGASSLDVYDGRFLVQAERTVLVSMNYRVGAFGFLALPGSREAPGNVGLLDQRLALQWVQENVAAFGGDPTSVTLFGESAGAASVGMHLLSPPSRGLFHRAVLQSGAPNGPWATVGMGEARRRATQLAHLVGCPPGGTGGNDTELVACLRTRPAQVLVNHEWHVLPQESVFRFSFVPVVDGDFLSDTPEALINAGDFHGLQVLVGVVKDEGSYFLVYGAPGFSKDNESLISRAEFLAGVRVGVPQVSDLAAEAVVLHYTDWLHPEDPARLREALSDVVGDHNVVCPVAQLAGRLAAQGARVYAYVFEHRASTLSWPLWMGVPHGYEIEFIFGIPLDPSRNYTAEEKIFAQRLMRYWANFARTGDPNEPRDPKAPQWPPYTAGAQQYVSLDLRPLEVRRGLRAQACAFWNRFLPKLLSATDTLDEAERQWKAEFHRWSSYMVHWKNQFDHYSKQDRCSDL

Row | Compound | Ki (AChE, 50 mM Tris pH=8.0, 20 minutes incubation at ambient temperature, acetyl thiocholine and Ellman's reagent, read-out: Ki (M)* (Esterase)) [M] | Ki [M]
1 | C[N+](C)(CCO)CCCC(=O)C(F)(F)F [N,N-dimethyl-N-[2-(hydroxy)ethyl]-5,5,5-trifluoro-4-oxopentanaminium, hydroxide salt] | 5e-09 | 
2 | C[N+](C)(CCCCO)CCCC(=O)C(F)(F)F [N,N-dimethyl-N-[4-(hydroxy)butyl] 5,5,5-trifluoro-4-oxopentanaminium, hydroxide salt] |  | 6.5e-08
